Results as given in US9155714B2, “Compositions comprising an aromatic alcohol and a TRPV-1 antagonist, and uses thereof” (JOHNSON & JOHNSON CONSUMER INC., priority 2013, dated 2015).
Where “and” joins values, the source holds several entries; their conditions need not be identical. Equal values may be shown once.

Tests used:
Assay type in all cases: cell-based
[1] = molecular target: T1, human vanilloid receptor-1 (TRPV-1) (Homo sapiens, UniProt Q8NER1); test: Calcium Flux Test, phenoxyethanol replaced with capsaicin (capsaicin-induced calcium flux)
T1 construct: host or cells: HEK293
Protocol: (§1) The Calcium Flux Test is performed in the following manner: Recombinant HEK293 cells expressing human vanilloid receptor-1 (TRPV-1; accession number AF196175, EMD Millipore, Billerica, Mass.) are grown in D-MEM/F-12 media (Life Technologies, Grand Island, N.Y.) supplemented with 10% fetal bovine serum, 1% non essential amino acids and 400 μg/mL Geneticin (Gibco, Life Technologies). Cells are plated at a concentration of 15,000 cells per well on poly-D-lysine-coated 384 well plates and incubated overnight at 5% CO2 and 37° C. After incubation, culture media is removed from the wells and replaced with 50 μL per well of Fluo-8 No Wash dye solution (#36315, AAT Bioquest, Sunnyvale, Calif.). The Fluo-8 dye solution is prepared by mixing 20 uL of Fluo-8 NW with 30 mL of 0.33× Pluronic® F127 Plus (BASF of Ludwigshafen, Germany) in assay buffer (1×HBSS+2% of HEPES). Fluo-8 dye is incubated for 30 minutes at room temperature. Intracellular calcium (Ca^2+) flux is monitored upon exposure to aromatic alcohol in DMSO vehicle by measuring fluorescence intensity at Ex/Em 490/525 on a Functional Drug Screening System (FDSS; Hamamatsu, […]). Measurements are taken every second for a period of 4 minutes. […] Statistical differences are obtained using One Way ANOVA with Tukey Post-hoc test; statistical significance is defined as P≦0.05.
(§2) The Maximum RFU obtained with a given concentration of aromatic alcohol is compared with the Maximum RFU obtained using the same concentration of aromatic alcohol but pretreated with the TRPV-1 antagonist for 5 minutes after dye incubation. Percent inhibition achieved with the TRPV-1 antagonist is calculated as: 100*((Maximum RFU of aromatic alcohol−Maximum RFU of aromatic alcohol pretreated with TRPV-1 antagonist)/Maximum RFU of aromatic alcohol).
(§3) Capsazepine and AMG9810 were tested for activity as TRPV-1 antagonists using the Calcium Flux Test using two different concentrations of phenoxyethanol in DMSO. They were also tested using the Calcium Flux Test in which phenoxyethanol was replaced with capsaicin. […]

[2] = molecular target: T1, human vanilloid receptor-1 (TRPV-1); test: Calcium Flux Test, inhibition of phenoxyethanol-induced calcium flux; conditions: for reducing phenoxyethanol-induced calcium flux (result in words): TRPV-1-expressing HEK293 cells
Protocol: as §1, §2, §3

[3] = molecular target: T1, human vanilloid receptor-1 (TRPV-1); test: Calcium Flux Test, activity as TRPV-1 agonist
Protocol: as §1
(§4) Phenoxyethanol was tested at a series of concentrations in DMSO for activity as a TRPV-1 agonist according to the Calcium Flux Test described above. Capsaicin was used as a positive control.
(§5) Maximum RFU values for treatment with phenoxyethanol or capsaisin were compared to the Maximum RFU for a DMSO vehicle alone. Concentrations of phenoxyethanol and capsaicin are reported in milimolar (mM) and nanomolar (nM), respectively.
(§6) Benzyl alcohol and sodium bicarbonate were tested using the Calcium Flux Test.
(§7) Benzyl alcohol and phenethyl alcohol were tested at a series of concentrations in DMSO for activity as a TRPV-1 agonist as described in Example 1. Concentrations of benzyl alcohol and phenethyl alcohol are reported in units of % w/v.

[4] = molecular target: T1, human vanilloid receptor-1 (TRPV-1); test: Calcium Flux Test, activity as TRPV-1 agonist; parameters: key: **: Statistically significant; n/s: Not statistically significant
Protocol: as §1, §4, §5, §6, §7

[5] = AMG9810 625 nM, capsaicin 100 nM
[6] = AMG9810 625 nM, capsaicin 300 nM
[7] = AMG9810 2500 nM, capsaicin 100 nM
[8] = AMG9810 2500 nM, capsaicin 300 nM
[9] = AMG9810 10000 nM, capsaicin 100 nM
[10] = AMG9810 10000 nM, capsaicin 300 nM
[11] = AMG9810 0.6104 nM, phenoxyethanol 2 mM
[12] = AMG9810 2 nM, phenoxyethanol 2 mM
[13] = AMG9810 10 nM, phenoxyethanol 2 mM
[14] = AMG9810 39 nM, phenoxyethanol 2 mM
[15] = AMG9810 39 nM, phenoxyethanol 3 mM
[16] = AMG9810 156 nM, phenoxyethanol 2 mM
[17] = AMG9810 156 nM, phenoxyethanol 3 mM
[18] = AMG9810 625 nM, phenoxyethanol 2 mM
[19] = AMG9810 625 nM, phenoxyethanol 3 mM
[20] = AMG9810 2500 nM, phenoxyethanol 2 mM
[21] = AMG9810 2500 nM, phenoxyethanol 3 mM
[22] = AMG9810 10000 nM, phenoxyethanol 2 mM
[23] = AMG9810 10000 nM, phenoxyethanol 3 mM
[24] = compound 100 μM, capsaicin 300 nM
[25] = compound 25 μM, phenoxyethanol 2 mM
[26] = compound 25 μM, phenoxyethanol 3 mM
[27] = compound 100 μM, phenoxyethanol 2 mM
[28] = compound 100 μM, phenoxyethanol 3 mM

T1 sequence (Q8NER1 whole entry): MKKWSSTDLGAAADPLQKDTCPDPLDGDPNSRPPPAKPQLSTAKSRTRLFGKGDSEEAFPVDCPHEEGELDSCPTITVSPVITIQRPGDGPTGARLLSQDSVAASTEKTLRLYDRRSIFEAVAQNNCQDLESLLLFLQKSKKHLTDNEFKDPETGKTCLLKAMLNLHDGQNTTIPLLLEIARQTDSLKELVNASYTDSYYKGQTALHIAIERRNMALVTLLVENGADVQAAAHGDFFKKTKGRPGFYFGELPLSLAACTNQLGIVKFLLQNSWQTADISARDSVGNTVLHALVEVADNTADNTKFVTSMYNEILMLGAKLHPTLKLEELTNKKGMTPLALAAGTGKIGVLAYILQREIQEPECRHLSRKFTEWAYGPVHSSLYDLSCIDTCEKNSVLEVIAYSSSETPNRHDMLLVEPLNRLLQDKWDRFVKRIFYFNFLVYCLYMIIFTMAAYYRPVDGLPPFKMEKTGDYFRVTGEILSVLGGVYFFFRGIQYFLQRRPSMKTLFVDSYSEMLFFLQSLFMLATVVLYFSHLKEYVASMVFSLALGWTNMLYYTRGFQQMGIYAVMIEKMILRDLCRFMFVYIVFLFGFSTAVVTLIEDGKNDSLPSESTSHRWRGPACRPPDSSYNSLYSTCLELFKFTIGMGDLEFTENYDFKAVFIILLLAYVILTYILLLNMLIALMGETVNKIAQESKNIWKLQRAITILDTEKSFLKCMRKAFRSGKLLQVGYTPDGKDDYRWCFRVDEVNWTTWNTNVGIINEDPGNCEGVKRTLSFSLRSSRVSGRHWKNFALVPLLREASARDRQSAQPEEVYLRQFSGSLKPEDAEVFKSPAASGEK

CC(C)(C)c1ccc(/C=C/C(=O)Nc2ccc3c(c2)OCCO3)cc1 [AMG9810, (E)-3-(4-t-butylphenyl)-N-(2,3-dihydrobenzo[b][1,4]dioxin-6-yl)acrylamide]
Maximum RFU (mean ± SD) ([1]; AMG9810 39 nM, capsaicin 100 nM): 942.69 ± 88.43 RFU
Maximum RFU (mean ± SD) ([1]; AMG9810 39 nM, capsaicin 300 nM): 975.35 ± 32.01 RFU
Maximum RFU (mean ± SD) ([1]; AMG9810 156 nM, capsaicin 100 nM): 916.79 ± 31.53 RFU
Maximum RFU (mean ± SD) ([1]; AMG9810 156 nM, capsaicin 300 nM): 958.56 ± 16.66 RFU
Maximum RFU (mean ± SD) [1, 5]: 735.36 ± 114.75 RFU
inhibition at 0.625 µM [1, 5]: 13.4%
Maximum RFU (mean ± SD) [1, 6]: 747.36 ± 77.35 RFU
inhibition at 0.625 µM [1, 6]: 14.6%
Maximum RFU (mean ± SD) [1, 7]: 85.41 ± 20.60 RFU
inhibition at 2.5 µM [1, 7]: 90%
Maximum RFU (mean ± SD) [1, 8]: 78.33 ± 46.56 RFU
inhibition at 2.5 µM [1, 8]: 91%
Maximum RFU (mean ± SD) [1, 9]: 47.00 ± 11.29 RFU
inhibition at 10 µM [1, 9]: 94.5%
Maximum RFU (mean ± SD) [1, 10]: 44.15 ± 2.20 RFU
inhibition at 10 µM [1, 10]: 95%
Maximum RFU (mean ± SD) ([2]; AMG9810 0.1526 nM, phenoxyethanol 2 mM): 261.54 ± 114.76 RFU
Maximum RFU (mean ± SD) ([2]; AMG9810 0.1526 nM, phenoxyethanol 3 mM): 412.30 ± 110.68 RFU
Maximum RFU (mean ± SD) [2, 11]: 189.72 ± 34.94 RFU
inhibition at 0.0006104 µM [2, 11]: 12.3%
Maximum RFU (mean ± SD) ([2]; AMG9810 0.6104 nM, phenoxyethanol 3 mM): 405.29 ± 152.93 RFU
Maximum RFU (mean ± SD) [2, 12]: 202.96 ± 18.01 RFU
inhibition at 0.002 µM [2, 12]: 6.2%
Maximum RFU (mean ± SD) ([2]; AMG9810 2 nM, phenoxyethanol 3 mM): 265.02 ± 52.11 RFU
Maximum RFU (mean ± SD) [2, 13]: 110.26 ± 27.80 RFU
inhibition at 0.01 µM [2, 13]: 49%
Maximum RFU (mean ± SD) ([2]; AMG9810 10 nM, phenoxyethanol 3 mM): 315.60 ± 125.77 RFU
Maximum RFU (mean ± SD) [2, 14]: 165.37 ± 162.35 RFU
inhibition at 0.039 µM [2, 14]: 23.6%
Maximum RFU (mean ± SD) [2, 15]: 98.74 ± 23.34 RFU
inhibition at 0.039 µM [2, 15]: 56%
Maximum RFU (mean ± SD) [2, 16]: 58.21 ± 5.97 RFU
inhibition at 0.156 µM [2, 16]: 73.1%
Maximum RFU (mean ± SD) [2, 17]: 75.59 ± 10.97 RFU
inhibition at 0.156 µM [2, 17]: 66.3%
Maximum RFU (mean ± SD) [2, 18]: 55.53 ± 8.48 RFU
inhibition at 0.625 µM [2, 18]: 74.3%
Maximum RFU (mean ± SD) [2, 19]: 58.16 ± 1.97 RFU
inhibition at 0.625 µM [2, 19]: 74.1%
Maximum RFU (mean ± SD) [2, 20]: 58.00 ± 5.34 RFU
inhibition at 2.5 µM [2, 20]: 73.2%
Maximum RFU (mean ± SD) [2, 21]: 68.59 ± 4.15 RFU
inhibition at 2.5 µM [2, 21]: 69.4%
Maximum RFU (mean ± SD) [2, 22]: 59.78 ± 3.84 RFU
inhibition at 10 µM [2, 22]: 72.4%
Maximum RFU (mean ± SD) [2, 23]: 65.74 ± 4.33 RFU
inhibition at 10 µM [2, 23]: 70.7%

OCCc1ccccc1 [Phenethyl Alcohol, phenethyl alcohol]
intracellular calcium flux in TRPV-1-transfected HEK cells (result in words) [3]: dose dependent increases
Maximum RFU ([3]; phenethyl alcohol 0.000002 % w/v alone (no antagonist)): 12.8 ± 1.35 RFU and 6.43 RFU and 12.28 ± 3.52 RFU
Maximum RFU ([3]; phenethyl alcohol 0.013 % w/v alone (no antagonist)): 185.92 ± 28.6 RFU and 123.10 RFU and 200.02 ± 6.15 RFU
Maximum RFU ([3]; phenethyl alcohol 0.04 % w/v alone (no antagonist)): 548.5 ± 37.22 RFU and 441.18 RFU and 470.23 ± 7.11 RFU
Maximum RFU ([3]; phenethyl alcohol 0.12 % w/v alone (no antagonist)): 755.2 ± 12.89 RFU and 605.31 RFU and 580.44 ± 3.06 RFU

OCc1ccccc1 [Benzyl Alcohol, benzyl alcohol]
P < 0.05 Compared to Vehicle ([4]; benzyl alcohol 0.25 mM): n/s
P < 0.05 Compared to Vehicle ([4]; benzyl alcohol 0.5 mM): n/s
P < 0.05 Compared to Vehicle ([4]; benzyl alcohol 1 mM): n/s
P < 0.05 Compared to Vehicle ([4]; benzyl alcohol 2 mM): n/s
P < 0.05 Compared to Vehicle ([4]; benzyl alcohol 4 mM): **
intracellular calcium flux in TRPV-1-transfected HEK cells (result in words) [3]: dose dependent increases
Maximum RFU ([3]; benzyl alcohol 0.000161 % w/v alone (no antagonist)): 10.95 ± 0.23 RFU and 8.44 RFU and 16.17 ± 1.16 RFU
Maximum RFU (mean ± SD) ([3]; benzyl alcohol 0.25 mM (Example 7)): 64.45 ± 28.15 RFU
Maximum RFU (mean ± SD) ([3]; benzyl alcohol 0.5 mM (Example 7)): 104.45 ± 12.50 RFU
Maximum RFU (mean ± SD) ([3]; benzyl alcohol 1 mM (Example 7)): 113.51 ± 4.70 RFU
Maximum RFU (mean ± SD) ([3]; benzyl alcohol 2 mM (Example 7)): 135.45 ± 12.15 RFU
Maximum RFU (mean ± SD) ([3]; benzyl alcohol 4 mM (Example 7)): 362.51 ± 126.09 RFU
Maximum RFU ([3]; benzyl alcohol 0.004357 % w/v alone (no antagonist)): 43.91 ± 3.74 RFU and 31.54 RFU and 55.75 ± 2.68 RFU
Maximum RFU ([3]; benzyl alcohol 0.013072 % w/v alone (no antagonist)): 160.8 ± 12.61 RFU and 93.35 RFU and 124.54 ± 13.18 RFU
Maximum RFU ([3]; benzyl alcohol 0.04 % w/v alone (no antagonist)): 608.23 ± 10.21 RFU and 410.41 RFU and 424.01 ± 2.92 RFU
Maximum RFU ([3]; benzyl alcohol 6.64E−07 % w/v alone (no antagonist)): 9.37 ± 1.66 RFU and 7.66 RFU and 13.85 ± 1.83 RFU
activity for TRPV-1 activation (result in words) ([3]; doses of 2 mM and below, Example 7): did not show statistically significant activity

CN(C)CCOC(c1ccccc1)c1ccccc1 [Diphenhydramine, diphenhydramine]
Maximum RFU (mean ± SD) [1, 24]: 825.37 ± 9.95 RFU
reducing phenoxyethanol-induced calcium flux (result in words) [2]: none of hydrocortisone, diphenhydramine or lidocaine were effective
Maximum RFU (mean ± SD) [2, 25]: 158.25 ± 0.69 RFU
Maximum RFU (mean ± SD) [2, 26]: 312.62 ± 67.77 RFU
Maximum RFU (mean ± SD) [2, 27]: 141.61 ± 33.91 RFU
Maximum RFU (mean ± SD) [2, 28]: 195.47 ± 53.34 RFU

C[C@]12CCC(=O)C=C1CC[C@@H]1[C@@H]2[C@@H](O)C[C@@]2(C)[C@H]1CC[C@]2(O)C(=O)CO [Hydrocortisone, hydrocortisone]
Maximum RFU (mean ± SD) ([1]; compound 25 μM, capsaicin 300 nM): 950.97 ± 49.52 RFU
Maximum RFU (mean ± SD) [1, 24]: 963.83 ± 65.21 RFU
reducing phenoxyethanol-induced calcium flux (result in words) [2]: none of hydrocortisone, diphenhydramine or lidocaine were effective
Maximum RFU (mean ± SD) [2, 25]: 171.65 ± 83.27 RFU
Maximum RFU (mean ± SD) [2, 26]: 309.90 ± 40.00 RFU
Maximum RFU (mean ± SD) [2, 27]: 160.66 ± 30.14 RFU
Maximum RFU (mean ± SD) [2, 28]: 225.19 ± 38.09 RFU

CCN(CC)CC(=O)Nc1c(C)cccc1C [Lidocaine, lidocaine]
reducing phenoxyethanol-induced calcium flux (result in words) [2]: none of hydrocortisone, diphenhydramine or lidocaine were effective
Maximum RFU (mean ± SD) [2, 25]: 124.96 ± 22.24 RFU
Maximum RFU (mean ± SD) [2, 26]: 197.45 ± 41.14 RFU
Maximum RFU (mean ± SD) [2, 27]: 116.25 ± 25.92 RFU
Maximum RFU (mean ± SD) [2, 28]: 205.92 ± 16.97 RFU
